Peptide text beside a SMILES is read from it. * marks the point of attachment. Cbz = O=C(OCc1ccccc1)*
T1: KDM4B (UniProt O94953 1-1096)
T1 construct: Endogenous KDM4B in MCF-7 nuclear extract or cell lysate; also called histone lysine demethylase KDM4B
T1 sequence (looked up): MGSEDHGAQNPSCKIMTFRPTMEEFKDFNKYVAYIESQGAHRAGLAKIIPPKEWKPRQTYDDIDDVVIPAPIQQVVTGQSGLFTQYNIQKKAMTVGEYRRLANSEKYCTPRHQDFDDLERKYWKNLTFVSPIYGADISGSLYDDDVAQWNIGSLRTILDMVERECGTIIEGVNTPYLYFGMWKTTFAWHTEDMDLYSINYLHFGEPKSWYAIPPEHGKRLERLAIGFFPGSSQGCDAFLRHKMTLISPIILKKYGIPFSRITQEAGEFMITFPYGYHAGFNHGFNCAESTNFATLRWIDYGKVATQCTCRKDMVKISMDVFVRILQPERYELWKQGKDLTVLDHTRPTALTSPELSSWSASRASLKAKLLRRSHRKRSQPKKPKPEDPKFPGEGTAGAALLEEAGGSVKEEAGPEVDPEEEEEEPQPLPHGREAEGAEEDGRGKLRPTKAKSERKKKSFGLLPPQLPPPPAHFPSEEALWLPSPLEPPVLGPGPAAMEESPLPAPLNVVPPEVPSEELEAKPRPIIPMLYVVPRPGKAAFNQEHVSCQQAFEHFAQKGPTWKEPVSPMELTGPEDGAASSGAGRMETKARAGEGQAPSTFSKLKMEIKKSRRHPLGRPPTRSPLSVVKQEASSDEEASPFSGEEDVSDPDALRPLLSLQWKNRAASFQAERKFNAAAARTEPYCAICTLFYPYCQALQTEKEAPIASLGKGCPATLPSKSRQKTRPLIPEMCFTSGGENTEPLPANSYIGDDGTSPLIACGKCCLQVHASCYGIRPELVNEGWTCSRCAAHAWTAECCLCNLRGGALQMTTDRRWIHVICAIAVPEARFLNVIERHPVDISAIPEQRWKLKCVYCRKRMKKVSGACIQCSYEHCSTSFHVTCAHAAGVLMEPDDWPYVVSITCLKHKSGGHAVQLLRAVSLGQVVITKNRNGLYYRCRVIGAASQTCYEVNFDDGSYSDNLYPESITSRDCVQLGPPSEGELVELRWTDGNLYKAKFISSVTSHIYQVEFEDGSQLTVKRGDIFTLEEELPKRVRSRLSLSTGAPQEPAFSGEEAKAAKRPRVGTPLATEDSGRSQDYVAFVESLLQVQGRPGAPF

B1: Estrogen receptor α (ERα) (receptor, UniProt P03372 1-595, looked up)
chain: MTMTLHTKASGMALLHQIQGNELEPLNRPQLKIPLERPLGEVYLDSSKPAVYNYPEGAAYEFNAAAAANAQVYGQTGLPYGPGSEAAAFGSNGLGGFPPLNSVSPSPLMLLHPPPQLSPFLQPHGQQVPYYLENEPSGYTVREAGPPAFYRPNSDNRRQGGRERLASTNDKGSMAMESAKETRYCAVCNDYASGYHYGVWSCEGCKAFFKRSIQGHNDYMCPATNQCTIDKNRRKSCQACRLRKCYEVGMMKGGIRKDRRGGRMLKHKRQRDDGEGRGEVGSAGDMRAANLWPSPLMIKRSKKNSLALSLTADQMVSALLDAEPPILYSEYDPTRPFSEASMMGLLTNLADRELVHMINWAKRVPGFVDLTLHDQVHLLECAWLEILMIGLVWRSMEHPGKLLFAPNLLLDRNQGKCVEGMVEIFDMLLATSSRFRMMNLQGEEFVCLKSIILLNSGVYTFLSSTLKSLEEKDHIHRVLDKITDTLIHLMAKAGLTLQQQHQRLAQLLLILSHIRHMSNKGMEHLYSMKCKNVVPLYDLLLEMLDAHRLHAPTSRGGASVEETDQSHLATAGSTSSHSLQKYYITGEAEGFPATV
notes: Endogenous ERα in MCF-7 nuclear extract or cell lysate; also called ERalpha
B2: wild-type FLAG-Fbxo22 (Wt) (other)
chain: MEPVGCCGECRGSSVDPRSTFVLSNLAEVVERVLTFLPAKALLRVACVCRLWRECVRRVLRTHRSVTWISAGLAEAGHLEGHCLVRVVAEELENVRILPHTVLYMADSETFISLEECRGHKRARKRTSMETALALEKLFPKQCQVLGIVTPGIVVTPMGSGSNRPQEIEIGESGFALLFPQIEGIKIQPFHFIKDPKNLTLERHQLTEVGLLDNPELRVVLVFGYNCCKVGASNYLQQVVSTFSDMNIILAGGQVDNLSSLTSEKNPLDIDASGVVGLSFSGHRIQSATVLLNEDVSDEKTAEAAMQRLKAANIPEHNTIGFMFACVGRGFQYYRAKGNVEADAFRKFFPSVPLFGFFGNGEIGCDRIVTGNFILRKCNEVKDDDLFHSYTTIMALIHLGSSK
notes: Dox-induced expression in MCF-7 cells; The tag is placed first by the order in the name; not shown: FLAG tag

Assays:
[1] = system: ERα complex with KDM4B and SRC-3
Method: (§1) Using total RNA derived from individual cells recovered over time, qPCR was carried out. […] Using total RNA prepared from the treated cells, qPCR was carried out. […] Using the nucleus extract, immunoprecipitation and immunoblotting were carried out.
The obtained cells were immunostained with anti-FLAG antibodies. Representative images are shown.
(§2) Total RNA was prepared from the cells treated with various drugs, and qPCR was carried out.
Immunoprecipitation and immunoblotting were carried out according to the method described in Johmura et al., Molecular Cell 55: 73-84, 2014. The cells were dissolved in a TBSN buffer (20 mM Tris-Cl (pH 8.0), 150 mM NaCl, 0.5% NP-40, 5 mM EGTA, 1.5 mM EDTA, and 0.5 mM Na3VO4). The obtained cell lysate was centrifuged at 4° C. at 15,000×g for 20 minutes, and was then used in immunoprecipitation using an antibody.
Regarding immunoprecipitation of ERα and KDM4B, a nuclear extract was prepared according to the method described in Hirokawa et al., Cancer Res. 74: 3880-3889, 2014. Cell pellets were suspended in buffer A (10 mM Hepes-KOH pH 7.9, 10 mM KCl, 1.5 mM MgCl2, 0.5 mM DTT, 0.5 mM PMSF, and protease inhibitor cocktail (Nakalai Tesque)) having five times the volume of the cell pellets, and the suspension was then incubated on ice for 5 minutes. Thereafter, the cells were centrifuged at 4° C. at 500×g for 5 minutes, and the obtained cell pellets were then suspended in buffer A having two times the volume of the cell pellets for homogenization. The homogenized cell suspension was centrifuged at 4° C. at 4,000×g for 5 minutes, and a cell nucleus was recovered in a precipitate. To the recovered nucleus, an equal amount of buffer B (20 mM Hepes-KOH pH 7.9, 600 mM KCl, 1.5 mM MgCl2, 0.2 mM EDTA, 25% glycerol, 0.5 mM DTT, 0.5 mM PMSF, and protease inhibitor cocktail) was added and suspended, and the obtained mixture was then blended at 4° C. for 30 minutes, using a rotator. The nuclear extract was centrifuged at 4° C. at 16,000×g for 15 minutes, and was then recovered in a supernatant. The nuclear extract was dialyzed against buffer C (20 mM Hepes-KOH pH 7.9, 100 mM KCl, 0.2 mM EDTA, 20% glycerol, 0.5 mM DTT, and 0.5 mM PMSF). After completion of the dialysis, the nuclear extract was centrifuged at 4° C. at 16,000×g for 30 minutes, and the remaining precipitate was then eliminated.
A protein (20 to 50 μg) was separated from the total cell lysate by SDS-PAGE, and was then transferred into a PVDF membrane (Millipore), which was then used in immunoblotting using various types of antibodies.

[2] = system: ERα-dependent transcription; experiment: qPCR of ERα target gene transcripts (EBAG9, GREB1) in MCF-7 cells; assay type: cell-based, human; details: for effect of removing Fbxo22 on the antagonistic activity: MCF-7 expressing Dox-induced shRNAs, E2 6 h then drug 12 h
Method: as §1
Using total RNA prepared from the cells over time, qPCR was carried out.
as §2
The cells were washed with PBS three times, and were then cultured in phenol red-non-added DMEM (supplemented with 5% charcoal-stripped FBS) for 72 hours.
Quantitative RT-PCR was carried out according to the method described in Johmura et al., Molecular Cell 55: 73-84, 2014. Total RNA was extracted using ISOGEN II (Wako), and using this as a template, cDNA was synthesized using SuperScript II cDNA synthesis kit (Invitrogen). PCR amplification was carried out in a 96-well optical reaction plate, using Power SYBR Green PCR Master Mix (Applied Biosystems). The relative expression ratio of individual genes was normalized with respect to the expression level of GAPDH.

ERα = experiment: ChIP-Seq analysis of ERα binding in MCF-7 cells; assay type: cell-based, human; details: 2 hours, E2 line = E2 (10 nM), 4-OHT line = E2+4-OHT
Excerpt: Thereafter, DNA was extracted using a DNA purification column.

N-CoR repressor = biological target: T2, N-CoR repressor (UniProt O75376 1-2440, limits assumed); experiment: co-IP and immunoblot, control MCF-7 nuclear extract after E2 then 4-OHT (FIG. 5B)
T2 construct: Endogenous corepressor in MCF-7 nuclear extract
T2 sequence (O75376 whole entry): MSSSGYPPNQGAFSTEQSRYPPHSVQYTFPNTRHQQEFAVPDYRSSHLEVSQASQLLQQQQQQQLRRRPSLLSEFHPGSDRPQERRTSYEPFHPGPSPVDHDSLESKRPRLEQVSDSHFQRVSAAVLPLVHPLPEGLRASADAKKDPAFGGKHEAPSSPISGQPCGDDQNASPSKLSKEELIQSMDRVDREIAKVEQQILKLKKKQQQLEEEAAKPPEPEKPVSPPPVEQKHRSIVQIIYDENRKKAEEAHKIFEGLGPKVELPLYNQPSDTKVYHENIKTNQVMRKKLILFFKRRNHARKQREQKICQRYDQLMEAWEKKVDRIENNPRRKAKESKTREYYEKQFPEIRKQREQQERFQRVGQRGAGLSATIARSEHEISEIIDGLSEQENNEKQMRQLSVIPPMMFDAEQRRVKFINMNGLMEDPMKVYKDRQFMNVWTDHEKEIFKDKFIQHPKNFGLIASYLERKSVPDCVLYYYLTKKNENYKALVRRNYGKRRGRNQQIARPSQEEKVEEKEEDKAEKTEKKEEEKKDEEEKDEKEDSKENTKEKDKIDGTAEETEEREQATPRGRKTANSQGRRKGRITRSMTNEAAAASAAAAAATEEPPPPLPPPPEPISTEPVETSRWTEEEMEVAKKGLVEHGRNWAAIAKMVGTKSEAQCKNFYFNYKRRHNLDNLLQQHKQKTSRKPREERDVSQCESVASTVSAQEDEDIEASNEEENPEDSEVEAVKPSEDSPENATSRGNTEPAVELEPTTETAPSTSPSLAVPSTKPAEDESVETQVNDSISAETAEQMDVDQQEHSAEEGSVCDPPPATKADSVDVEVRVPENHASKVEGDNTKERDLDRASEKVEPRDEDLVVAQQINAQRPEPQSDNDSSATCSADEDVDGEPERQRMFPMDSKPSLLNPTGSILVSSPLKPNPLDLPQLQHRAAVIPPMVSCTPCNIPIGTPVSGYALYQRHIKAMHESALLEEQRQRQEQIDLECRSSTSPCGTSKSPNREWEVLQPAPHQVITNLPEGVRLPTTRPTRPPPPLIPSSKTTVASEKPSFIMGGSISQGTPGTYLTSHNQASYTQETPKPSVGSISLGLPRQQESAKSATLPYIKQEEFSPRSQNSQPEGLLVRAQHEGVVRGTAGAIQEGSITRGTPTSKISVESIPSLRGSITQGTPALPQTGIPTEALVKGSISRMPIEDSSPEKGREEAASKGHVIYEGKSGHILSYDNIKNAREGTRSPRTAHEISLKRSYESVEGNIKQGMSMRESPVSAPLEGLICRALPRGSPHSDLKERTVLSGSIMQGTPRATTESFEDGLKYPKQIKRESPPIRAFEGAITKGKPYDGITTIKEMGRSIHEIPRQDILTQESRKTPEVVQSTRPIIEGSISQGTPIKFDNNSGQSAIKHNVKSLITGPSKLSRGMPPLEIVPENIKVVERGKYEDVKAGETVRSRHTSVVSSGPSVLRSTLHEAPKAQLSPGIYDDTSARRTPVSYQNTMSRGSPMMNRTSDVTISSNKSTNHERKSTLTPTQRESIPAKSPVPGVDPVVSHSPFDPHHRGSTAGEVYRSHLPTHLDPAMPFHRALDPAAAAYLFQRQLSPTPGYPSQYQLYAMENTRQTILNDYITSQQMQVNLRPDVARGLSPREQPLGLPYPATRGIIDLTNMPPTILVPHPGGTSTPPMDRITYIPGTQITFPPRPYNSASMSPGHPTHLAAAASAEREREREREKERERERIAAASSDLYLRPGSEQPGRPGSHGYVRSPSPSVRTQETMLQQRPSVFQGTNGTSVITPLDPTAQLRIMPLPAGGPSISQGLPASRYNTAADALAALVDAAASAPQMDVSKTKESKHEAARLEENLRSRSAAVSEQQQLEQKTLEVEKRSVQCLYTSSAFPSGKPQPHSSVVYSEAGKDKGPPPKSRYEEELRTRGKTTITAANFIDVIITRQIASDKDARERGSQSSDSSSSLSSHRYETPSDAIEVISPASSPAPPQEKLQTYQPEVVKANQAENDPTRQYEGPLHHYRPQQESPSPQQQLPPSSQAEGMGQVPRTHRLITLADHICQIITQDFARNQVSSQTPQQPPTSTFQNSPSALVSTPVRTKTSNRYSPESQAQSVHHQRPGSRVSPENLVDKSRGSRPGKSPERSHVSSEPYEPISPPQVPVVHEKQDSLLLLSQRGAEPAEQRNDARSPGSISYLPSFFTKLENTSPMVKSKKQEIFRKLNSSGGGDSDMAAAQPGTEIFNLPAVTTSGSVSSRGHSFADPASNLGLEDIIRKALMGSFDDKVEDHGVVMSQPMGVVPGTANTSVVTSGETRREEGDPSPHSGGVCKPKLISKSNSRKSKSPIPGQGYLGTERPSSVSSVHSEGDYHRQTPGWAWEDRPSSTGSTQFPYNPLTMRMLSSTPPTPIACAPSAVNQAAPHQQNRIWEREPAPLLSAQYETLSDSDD

KDM4B [3] = biological target: T1, KDM4B; experiment: co-IP (IP: ER) and immunoblot, MCF-7 nuclear extract after E2 (FIG. 2B)
KDM4B [4] = biological target: T1, KDM4B; experiment: co-IP and immunoblot, E2-depleted MCF-7 cells with MG132 and 0.1, 1 or 10 nM E2 (FIG. 3I)
[5] = biological target: B1; experiment: anti-FLAG co-IP and immunoblot, MCF-7 cells expressing FLAG-Fbxo22 Wt or domain-deficient mutants (FIG. 3G)

Molecule: C[C@]12CC[C@@H]3c4ccc(O)cc4C[C@@H](CCCCCCCCC[S+]([O-])CCCC(F)(F)C(F)(F)F)[C@H]3[C@@H]1CC[C@@H]2O (stereo partly shown) [Fulvestrant]
- need of Fbxo22 for the dynamics of cofactors in treated cells ([1]; MCF-7, E2 plus drug): not necessary
- effect of removing Fbxo22 on the antagonistic activity [2]: no effects

Molecule: CN(C)CCOc1ccc(/C(=C(/CCCl)c2ccccc2)c2ccccc2)cc1 [Toremifene]
- effect of removing Fbxo22 on the antagonistic activity [2]: effects similar to those on 4-OHT

Molecule: C[C@]12CC[C@@H]3c4ccc(O)cc4CC[C@H]3[C@@H]1CC[C@@H]2O [E2, Estradiol]
- ERα accumulation peaks detected (ERα; Fbxo22-depleted MCF-7 cells): 23,213
- ERα accumulation peaks detected (ERα; wild-type/control MCF-7 cells): 1,264

Molecule: CC(C)C[C@@H](C=O)NC(=O)[C@H](CC(C)C)NC(=O)[C@H](CC(C)C)NC(=O)OCc1ccccc1 [MG132] (Cbz-Leu-Leu-Leu-aldehyde)
- dynamics of cofactors (complex dissociation, N-CoR binding) after 4-OHT ([1]; MCF-7, E2+4-OHT+MG132): suppressed
- dissociation of KDM4B and SRC-3 from ERα by elimination of E2 ([1]; MCF-7, E2 depletion plus proteasome inhibitor): suppressed
- E2-induced transcriptional activity of EBAG9 and GREB1 after removal of E2 ([2]; MCF-7, E2 removed from medium, proteasome inhibitor added): recovered
- transcript levels of EBAG9 and GREB1 after treatment with 4-OHT ([2]; MCF-7, E2 then 4-OHT, in the presence of MG132 (10 μg/ml) compared with absence): maintained at high levels

Molecule: B1
- binding result (N-CoR repressor): binds
- binding result (KDM4B [3]): binds

Molecule: B2
- binding result (KDM4B [4]): binds
- binding result [5]: binds

From US20220120753A1, “METHOD FOR DETERMINING PROGNOSIS OF CANCER” (The University of Tokyo, priority 2018, published 2022)
